# From ChEMBL document CHEMBL5291721, “A preclinical secondary pharmacology resource illuminates target-adverse drug reaction associations of marketed drugs” (Nat Commun, 2023)
# What was measured:
# Adenosine receptor A3 [1] = target: T1, Adenosine receptor A3 (Homo sapiens, UniProt P0DMS8)
# T1 sequence (P0DMS8 whole entry): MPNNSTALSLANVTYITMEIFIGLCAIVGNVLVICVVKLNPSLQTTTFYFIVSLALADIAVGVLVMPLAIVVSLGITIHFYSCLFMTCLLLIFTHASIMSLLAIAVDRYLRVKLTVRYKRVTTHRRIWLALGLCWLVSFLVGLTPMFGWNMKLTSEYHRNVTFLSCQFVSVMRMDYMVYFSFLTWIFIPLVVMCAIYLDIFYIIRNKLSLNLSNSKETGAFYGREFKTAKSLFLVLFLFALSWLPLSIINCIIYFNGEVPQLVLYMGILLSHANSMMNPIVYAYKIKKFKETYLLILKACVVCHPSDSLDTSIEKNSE
# [2] = target: T2, Muscarinic acetylcholine receptor M1 (Homo sapiens, UniProt P11229); assay type: functional, cell-based
# T2 sequence (P11229 whole entry): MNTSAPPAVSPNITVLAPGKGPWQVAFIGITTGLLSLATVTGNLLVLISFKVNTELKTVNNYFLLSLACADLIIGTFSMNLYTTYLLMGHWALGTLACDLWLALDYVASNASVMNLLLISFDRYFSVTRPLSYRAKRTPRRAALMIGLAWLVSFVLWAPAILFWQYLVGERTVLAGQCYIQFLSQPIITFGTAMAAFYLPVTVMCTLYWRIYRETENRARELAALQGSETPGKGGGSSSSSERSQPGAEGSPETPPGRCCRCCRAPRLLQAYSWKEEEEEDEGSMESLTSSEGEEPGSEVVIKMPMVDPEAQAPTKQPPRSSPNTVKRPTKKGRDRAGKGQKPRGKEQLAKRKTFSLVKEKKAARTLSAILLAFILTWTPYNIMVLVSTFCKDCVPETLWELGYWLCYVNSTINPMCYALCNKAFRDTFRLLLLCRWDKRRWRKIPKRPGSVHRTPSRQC
# Adenosine receptor A3 [3] = target: T1, Adenosine receptor A3; remark: listed apart in the source
# [4] = target: T3, Alpha-2A adrenergic receptor (Homo sapiens, UniProt P08913); assay type: functional, cell-based
# T3 sequence (P08913 whole entry): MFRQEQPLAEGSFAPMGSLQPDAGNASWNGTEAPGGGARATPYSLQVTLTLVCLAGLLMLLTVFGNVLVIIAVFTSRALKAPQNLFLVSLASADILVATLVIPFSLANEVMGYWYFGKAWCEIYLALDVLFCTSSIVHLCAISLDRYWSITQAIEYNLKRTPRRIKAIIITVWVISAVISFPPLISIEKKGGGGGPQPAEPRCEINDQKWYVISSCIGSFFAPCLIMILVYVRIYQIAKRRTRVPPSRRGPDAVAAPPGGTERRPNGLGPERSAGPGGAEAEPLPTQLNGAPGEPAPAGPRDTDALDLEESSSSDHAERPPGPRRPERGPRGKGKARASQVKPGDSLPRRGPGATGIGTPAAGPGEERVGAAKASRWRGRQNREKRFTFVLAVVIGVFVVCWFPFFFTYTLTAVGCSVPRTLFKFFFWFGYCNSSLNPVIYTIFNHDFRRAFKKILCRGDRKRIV
# [5] = target: Beta-1 adrenergic receptor (Homo sapiens, UniProt P08588); assay type: functional
# Sequence of Beta-1 adrenergic receptor (P08588 whole entry): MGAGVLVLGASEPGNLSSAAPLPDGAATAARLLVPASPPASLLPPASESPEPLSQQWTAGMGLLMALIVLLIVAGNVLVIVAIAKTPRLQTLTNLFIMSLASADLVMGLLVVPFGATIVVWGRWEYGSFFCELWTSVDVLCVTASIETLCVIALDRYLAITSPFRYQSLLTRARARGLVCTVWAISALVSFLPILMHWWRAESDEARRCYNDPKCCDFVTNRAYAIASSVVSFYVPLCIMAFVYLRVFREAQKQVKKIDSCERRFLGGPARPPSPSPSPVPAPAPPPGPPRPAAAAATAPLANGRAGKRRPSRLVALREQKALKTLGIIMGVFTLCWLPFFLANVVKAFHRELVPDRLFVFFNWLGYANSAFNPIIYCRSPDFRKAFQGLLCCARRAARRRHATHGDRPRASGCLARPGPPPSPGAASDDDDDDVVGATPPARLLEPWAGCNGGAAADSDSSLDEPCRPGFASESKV
# [6] = target: T4, Type-1 angiotensin II receptor (Homo sapiens, UniProt P30556)
# T4 sequence (P30556 whole entry): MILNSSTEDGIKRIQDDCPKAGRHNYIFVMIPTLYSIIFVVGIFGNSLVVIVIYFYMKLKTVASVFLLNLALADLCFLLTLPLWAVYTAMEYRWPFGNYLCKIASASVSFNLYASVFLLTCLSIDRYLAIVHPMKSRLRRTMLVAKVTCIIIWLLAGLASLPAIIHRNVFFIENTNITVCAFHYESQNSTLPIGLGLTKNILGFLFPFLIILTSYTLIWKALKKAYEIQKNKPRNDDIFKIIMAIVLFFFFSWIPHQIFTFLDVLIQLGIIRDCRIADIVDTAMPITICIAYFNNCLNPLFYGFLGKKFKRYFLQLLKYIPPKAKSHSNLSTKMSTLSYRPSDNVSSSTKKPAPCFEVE
# [7] = target: T5, Muscarinic acetylcholine receptor M2 (Homo sapiens, UniProt P08172); assay type: functional, cell-based
# T5 sequence (P08172 whole entry): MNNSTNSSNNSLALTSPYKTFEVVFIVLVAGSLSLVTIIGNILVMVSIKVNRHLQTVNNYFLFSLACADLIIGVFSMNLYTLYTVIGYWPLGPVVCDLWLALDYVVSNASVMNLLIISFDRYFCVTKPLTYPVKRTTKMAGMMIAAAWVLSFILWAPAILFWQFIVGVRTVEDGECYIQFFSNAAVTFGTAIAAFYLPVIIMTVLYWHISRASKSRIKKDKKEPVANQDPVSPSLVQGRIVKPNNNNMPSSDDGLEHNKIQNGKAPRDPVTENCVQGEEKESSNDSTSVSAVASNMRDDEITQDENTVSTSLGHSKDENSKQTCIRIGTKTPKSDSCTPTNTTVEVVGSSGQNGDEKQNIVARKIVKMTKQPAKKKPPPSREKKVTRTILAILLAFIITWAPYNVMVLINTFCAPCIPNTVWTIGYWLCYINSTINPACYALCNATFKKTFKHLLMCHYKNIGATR
# [8] = target: Gamma-aminobutyric acid receptor subunit alpha-1 (Rattus norvegicus, UniProt P62813); assay type: functional
# Sequence of Gamma-aminobutyric acid receptor subunit alpha-1 (P62813 whole entry): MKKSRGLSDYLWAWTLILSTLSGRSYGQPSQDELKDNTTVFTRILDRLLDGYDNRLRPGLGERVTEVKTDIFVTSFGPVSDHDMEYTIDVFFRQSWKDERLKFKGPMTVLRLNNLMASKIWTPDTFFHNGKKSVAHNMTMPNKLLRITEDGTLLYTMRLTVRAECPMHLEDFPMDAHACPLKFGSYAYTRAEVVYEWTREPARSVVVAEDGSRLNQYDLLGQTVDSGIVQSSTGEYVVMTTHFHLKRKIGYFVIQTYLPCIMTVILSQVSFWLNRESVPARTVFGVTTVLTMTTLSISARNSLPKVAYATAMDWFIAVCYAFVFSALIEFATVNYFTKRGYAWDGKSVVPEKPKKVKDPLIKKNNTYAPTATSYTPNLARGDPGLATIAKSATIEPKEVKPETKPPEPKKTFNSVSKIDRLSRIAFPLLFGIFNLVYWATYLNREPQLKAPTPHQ
# [9] = target: T6, 5-hydroxytryptamine receptor 3A (Homo sapiens, UniProt P46098); assay type: functional
# T6 sequence (P46098 whole entry): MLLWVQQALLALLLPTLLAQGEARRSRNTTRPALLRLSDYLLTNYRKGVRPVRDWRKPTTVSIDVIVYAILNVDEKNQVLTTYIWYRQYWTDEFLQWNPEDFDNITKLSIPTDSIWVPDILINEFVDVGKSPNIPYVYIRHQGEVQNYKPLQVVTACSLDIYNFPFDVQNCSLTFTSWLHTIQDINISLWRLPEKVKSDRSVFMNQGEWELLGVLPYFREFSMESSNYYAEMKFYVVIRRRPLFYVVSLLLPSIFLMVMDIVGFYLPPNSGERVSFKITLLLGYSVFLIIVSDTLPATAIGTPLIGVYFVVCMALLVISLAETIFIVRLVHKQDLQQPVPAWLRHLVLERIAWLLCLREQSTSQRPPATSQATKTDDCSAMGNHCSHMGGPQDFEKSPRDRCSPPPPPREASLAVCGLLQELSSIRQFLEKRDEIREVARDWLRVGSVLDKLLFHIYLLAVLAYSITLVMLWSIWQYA
# [10] = target: Delta-type opioid receptor (Homo sapiens, UniProt P41143)
# Sequence of Delta-type opioid receptor (P41143 whole entry): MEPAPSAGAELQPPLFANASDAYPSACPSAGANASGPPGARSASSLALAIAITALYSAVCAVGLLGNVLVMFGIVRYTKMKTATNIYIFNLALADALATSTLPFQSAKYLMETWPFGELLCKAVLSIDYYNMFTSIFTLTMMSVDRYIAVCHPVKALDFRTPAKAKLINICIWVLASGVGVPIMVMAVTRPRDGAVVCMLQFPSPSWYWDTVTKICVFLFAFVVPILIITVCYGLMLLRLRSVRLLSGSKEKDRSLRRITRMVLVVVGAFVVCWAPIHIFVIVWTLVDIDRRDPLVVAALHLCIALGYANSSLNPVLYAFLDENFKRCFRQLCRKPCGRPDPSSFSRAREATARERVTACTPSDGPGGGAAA
# Further: assay procedure not described here.
SMILES,AC50 (Adenosine receptor A3 [1]) [µM],AC50 [2] [µM],AC50 (Adenosine receptor A3 [3]) [µM],AC50 [4] [µM],AC50 [5] [µM],AC50 [6] [µM],AC50 [7] [µM],AC50 [8] [µM],AC50 [9] [µM],AC50 [10] [µM]
CN1CCC[C@@H]1Cc1c[nH]c2ccc(CCS(=O)(=O)c3ccccc3)cc12,> 30,–,–,–,–,–,–,–,–,–
O=S(=O)(O)CCS [2-MERCAPTOETHANESULFONIC ACID],> 30,–,–,–,–,–,–,–,–,–
O=C(O)CCCc1ccc(N(CCCl)CCCl)cc1 [CHLORAMBUCIL],> 30,–,–,–,–,–,–,–,–,–
CN(C)CCN(Cc1ccc(Cl)cc1)c1ccccn1 [CHLOROPYRAMINE],> 30,2.27,–,–,–,–,–,–,–,–
Cn1c(=O)c2c(ncn2CC(O)CO)n(C)c1=O (stereo not given) [DYPHYLLINE],> 30,–,> 30,–,–,–,–,–,–,–
C#Cc1cccc(Nc2ncnc3cc(OCCOC)c(OCCOC)cc23)c1 [ERLOTINIB],3.01,1.64,25,> 30,> 30,> 30,> 30,> 30,> 30,> 30
Nc1nc(O)c2ncn(COC(CO)CO)c2n1 [GANCICLOVIR],–,–,> 30,> 30,> 30,> 30,> 30,> 30,> 30,> 30
CC1(C)O[C@@H]2C[C@H]3[C@@H]4CCC5=CC(=O)CC[C@]5(C)[C@@]4(F)[C@@H](O)C[C@]3(C)[C@]2(C(=O)CCl)O1 [HALCINONIDE],> 30,–,–,–,–,–,–,–,–,–
C[C@H]1Oc2cc(cnc2N)-c2c(nn(C)c2C#N)CN(C)C(=O)c2ccc(F)cc21 [LORLATINIB],–,–,1.2,> 30,> 30,> 30,> 30,> 30,> 30,> 30
Cc1cnc(NC(=O)C2=C(O)c3ccccc3S(=O)(=O)N2C)s1 [MELOXICAM],–,–,> 30,> 10,> 10,> 30,> 10,> 10,> 10,> 10
CCOc1cc(N)c(Cl)cc1C(=O)NCC1CN(Cc2ccc(F)cc2)CCO1 (stereo not given) [MOSAPRIDE],14.5,–,–,–,–,–,–,–,–,–
CN1CCC[C@H]1c1cccnc1 [NICOTINE],> 30,–,–,–,–,–,–,–,–,–
CN(C)c1cc(CNCC(C)(C)C)c(O)c2c1C[C@H]1C[C@H]3[C@H](N(C)C)C(O)=C(C(N)=O)C(=O)[C@@]3(O)C(O)=C1C2=O [OMADACYCLINE],–,–,25,> 30,> 30,> 30,> 30,> 30,25,27
O=C1NC(=O)C(c2ccccc2)(c2ccccc2)N1 [PHENYTOIN],–,–,> 30,> 30,> 30,> 30,> 30,> 30,> 30,> 30
CC(C)COc1ccc(CNC(=O)N(Cc2ccc(F)cc2)C2CCN(C)CC2)cc1 [PIMAVANSERIN],> 30,29.9,–,–,–,–,–,–,–,–
CC(C)C[C@H](CN)CC(=O)O [PREGABALIN],–,–,> 30,> 30,> 30,> 30,> 30,> 30,> 30,> 30
CCOc1cc(CC(=O)N[C@@H](CC(C)C)c2ccccc2N2CCCCC2)ccc1C(=O)O [REPAGLINIDE],–,–,22,> 30,> 30,> 30,> 30,> 30,> 30,> 30
NC(=O)c1ncn([C@@H]2O[C@H](CO)[C@@H](O)[C@H]2O)n1 [RIBAVIRIN],–,–,> 10,> 10,> 10,> 10,> 10,> 10,> 30,> 30
CCCN(CCC)CCc1cccc2c1CC(=O)N2 [ROPINIROLE],–,–,> 30,> 30,> 30,> 30,> 30,> 30,> 30,> 30
CCCN(CCc1cccs1)[C@H]1CCc2c(O)cccc2C1 [ROTIGOTINE],–,–,24,3.7,> 30,> 30,> 10,> 30,> 30,25
CC[C@H]1OC(=O)[C@H](C)[C@@H](O[C@H]2C[C@@](C)(OC)[C@@H](O)[C@H](C)O2)[C@H](C)[C@@H](O[C@@H]2O[C@H](C)C[C@H](N(C)C)[C@H]2O)[C@](C)(O)C[C@@H](C)/C(=N\OCOCCOC)[C@H](C)[C@@H](O)[C@]1(C)O [ROXITHROMYCIN],–,–,> 30,> 30,> 30,> 30,> 30,> 30,> 30,> 30
CC(=O)S[C@@H]1CC2=CC(=O)CC[C@]2(C)[C@H]2CC[C@@]3(C)[C@@H](CC[C@@]34CCC(=O)O4)[C@H]12 [SPIRONOLACTONE],–,–,> 30,> 30,> 30,> 30,> 30,> 10,> 30,> 30
CCCCCCCCNC(C)C(O)c1ccc(SC(C)C)cc1 (stereo not given) [SULOCTIDIL],9.82,–,–,–,–,–,–,–,–,–
CCCCNc1ccc(C(=O)OCCN(C)C)cc1 [TETRACAINE],–,–,> 30,> 10,> 10,> 30,> 10,> 10,> 10,> 10
Cc1cc(CC(=O)O)n(C)c1C(=O)c1ccc(Cl)cc1 [ZOMEPIRAC],–,–,> 30,> 30,> 30,> 30,> 30,> 30,> 30,> 30
